For four compounds, IC50, Ratio IC50 and inhibition results are on record in ChEMBL document CHEMBL4311934, “Exploration of [2 + 2 + 2] cyclotrimerisation methodology to prepare tetrahydroisoquinoline-based compounds with potential aldo-keto reductase 1C3 target affinity” (Medchemcomm, 2019).

One may read the IC50 as the point on the concentration scale where inhibition reaches its midpoint. Broadly, the inhibition is the relative decrease from the control value, in per cent.

The structures appear in SMILES notation.

For experiment [1], the target named is T1, Aldo-keto reductase family 1 member C3 (Homo sapiens, UniProt P42330).
T1 sequence (P42330 whole entry): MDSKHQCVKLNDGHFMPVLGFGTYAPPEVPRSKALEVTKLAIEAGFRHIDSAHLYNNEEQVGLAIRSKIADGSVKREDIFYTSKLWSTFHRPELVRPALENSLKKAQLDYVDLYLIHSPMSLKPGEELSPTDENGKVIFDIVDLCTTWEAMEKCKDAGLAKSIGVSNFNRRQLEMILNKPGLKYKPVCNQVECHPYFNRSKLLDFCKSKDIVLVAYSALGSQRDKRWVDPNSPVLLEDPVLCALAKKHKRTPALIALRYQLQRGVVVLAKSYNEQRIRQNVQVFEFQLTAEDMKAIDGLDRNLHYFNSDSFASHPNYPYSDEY
Put plainly: Inhibition of N-terminal GST-tagged recombinant human AKR1C3 expressed in Escherichia coli BL21 (DE) Codon Plus RP cells assessed as reduction in NADPH production using S-tetralol as substrate in presence of NADP+ by fluorimetry assay.

Experiment [2] addresses T2, Aldo-keto reductase family 1 member C2 (Homo sapiens, UniProt P52895).
T2 sequence (P52895 whole entry): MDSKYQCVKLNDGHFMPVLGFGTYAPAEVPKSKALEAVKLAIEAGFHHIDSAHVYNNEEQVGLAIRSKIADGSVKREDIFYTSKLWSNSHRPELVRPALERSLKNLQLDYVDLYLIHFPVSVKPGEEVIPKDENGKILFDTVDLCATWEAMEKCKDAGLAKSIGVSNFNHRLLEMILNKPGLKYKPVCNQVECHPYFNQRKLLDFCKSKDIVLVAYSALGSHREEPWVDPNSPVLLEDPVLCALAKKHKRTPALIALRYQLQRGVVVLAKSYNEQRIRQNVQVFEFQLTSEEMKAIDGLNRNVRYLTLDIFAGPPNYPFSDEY
Put plainly: Inhibition of N-terminal GST-tagged recombinant human AKR1C2 expressed in Escherichia coli BL21 (DE) Codon Plus RP cells assessed as reduction in NADPH production using S-tetralol as substrate in presence of NADP+ by fluorimetry assay.

A further experiment is filed under the species Homo sapiens. Put plainly: Selectivity index, ratio of IC50 for N-terminal GST-tagged recombinant human AKR1C2 expressed in Escherichia coli BL21 (DE) Codon Plus RP cells to IC50 for N-terminal GST-tagged recombinant human AKR1C3 expressed in Escherichia coli BL21 (DE) Codon Plus RP cells.
Experiment [3] deals with T3, Aldo-keto reductase family 1 member C3 (Homo sapiens) (UniProt P42330).
T3 sequence (whole entry): T1 sequence (P42330 whole entry)
The experiment can be described thus: Inhibition of N-terminal GST-tagged recombinant human AKR1C3 expressed in Escherichia coli BL21 (DE) Codon Plus RP cells assessed as reduction in NADPH production at 50 uM using S-tetralol as substrate in presence of NADP+ by fluorimetry assay relative to control.

The target of experiment [4] is T4, Aldo-keto reductase family 1 member C2 (Homo sapiens) (UniProt P52895).
T4 sequence (whole entry): T2 sequence (P52895 whole entry)
The experiment can be described thus: Inhibition of N-terminal GST-tagged recombinant human AKR1C2 expressed in Escherichia coli BL21 (DE) Codon Plus RP cells assessed as reduction in NADPH production 50 uM using S-tetralol as substrate in presence of NADP+ by fluorimetry assay relative to control.

Regarding `O=C(O)c1cc2c(cc1C(=O)O)CN1C(=O)CCC1C2` (stereo unspecified), the results for the IC50 in experiment [1] and in experiment [2] were 23.1 µM and 27.3 µM, respectively.

Turning to `CCOC(=O)c1cc2c(cc1C(=O)OCC)CN1C(=O)CCC1C2` (stereo unspecified), the Ratio IC50 in the experiment listed under Homo sapiens was 8. In addition, the half-maximal inhibitory concentration (IC50) in experiment [1] amounted to 11.7 µM; in experiment [2] it was 96.2 µM.

Regarding `COc1ccc2cc3[n+](cc2c1OC)CCc1cc2c(cc1-3)OCO2` [BERBERINE], the half-maximal inhibitory concentration (IC50) in experiment [1] amounted to 5.9 µM; in experiment [2], 6.71 µM.

In the case of `O=C1CCC2Cc3cc(CO)c(CO)cc3CN12` (stereo unspecified), the half-maximal inhibitory concentration (IC50) in experiment [1] and in experiment [2] was greater than 50 µM throughout. In addition, the inhibition in experiment [3] was 25%; in experiment [4], 26.9%.
